Results: patent publication US8188135B2, “Compounds as cannabinoid receptor ligands” (priority 2008, dated 2012)
pKi: −log10 of the molar value. Read-outs that look alike come from different tables or passages of the source.

How the values were obtained:
human CB2 receptors = target: T1, human CB2 receptors (Homo sapiens, UniProt P34972); assay: human CB2 radioligand binding assay ([3H]CP 55,940 competition); conditions: HEK293 membranes, 0.5 nM [3H]CP 55,940; for Ki: human CB2 (Ki, nM); for pKi: read-out: human CB2 (Ki)
T1 construct: expressed in transfected cells; host or cells: HEK293
T1 sequence (P34972 whole entry): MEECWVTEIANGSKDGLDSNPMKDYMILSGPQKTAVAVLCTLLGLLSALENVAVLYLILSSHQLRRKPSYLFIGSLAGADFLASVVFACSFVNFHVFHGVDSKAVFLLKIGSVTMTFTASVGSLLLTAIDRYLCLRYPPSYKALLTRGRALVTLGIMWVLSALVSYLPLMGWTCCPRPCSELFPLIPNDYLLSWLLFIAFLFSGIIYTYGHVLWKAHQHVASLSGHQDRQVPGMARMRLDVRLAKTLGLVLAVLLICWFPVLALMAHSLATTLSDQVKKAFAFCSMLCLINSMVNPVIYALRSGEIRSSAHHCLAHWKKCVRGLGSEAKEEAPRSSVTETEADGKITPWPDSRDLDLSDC
Experimental: (§1) The CB1 and CB2 radioligand binding assays described herein are utilized to ascertain the affinity of compounds of the present application for binding to CB2 relative to CB1 receptors.
HEK293 cells stably expressing human CB2 receptors were grown until a confluent monolayer was formed. Briefly, the cells were harvested and homogenized in TE buffer (50 mM Tris-HCl, 1 mM MgCl2, and 1 mM EDTA) using a polytron for 2×10 second bursts in the presence of protease inhibitors, followed by centrifugation at 45,000×g for 20 minutes. The final membrane pellet was re-homogenized in storage buffer (50 mM Tris-HCl, 1 mM MgCl2, and 1 mM EDTA and 10% sucrose) and frozen at −78° C. until used. Saturation binding reactions were initiated by the addition of membrane preparation (protein concentration of 5 μg/well for human CB2) into wells of a deep well plate containing [^3H]CP 55,940 (120 Ci/mmol, a nonselective CB agonist commercially available from Tocris) in assay buffer (50 mM Tris, 2.5 mM EDTA, 5 mM MgCl2, and 0.5 mg/mL fatty acid free BSA, pH 7.4). After 90 min incubation at 30° C., binding reaction was terminated by the addition of 300 μL/well of cold assay buffer followed by rapid vacuum filtration through a UniFilter-96 GF/C filter plates (pre-soaked in 1 mg/mL BSA for 2 hours). The bound activity was counted in a TopCount using Microscint-20. Saturation experiments were conducted with twelve concentrations of [^3H]CP 55,940 ranging from 0.01 to 8 nM. Competition experiments were conducted with 0.5 nM [^3H]CP 55,940 and five concentrations (0.01 nM to 10 μM) of displacing ligands. The addition of 10 μM unlabeled CP 55,940 (Tocris, Ellisville, Mo.) was used to assess nonspecific binding.

rat CB2 = target: T2, rat CB2 (Rattus norvegicus, UniProt Q9QZN9); assay: rat CB2 radioligand binding assay ([3H]CP 55,940 competition); set-up: expressed in transfected cells; host or cells: HEK293; conditions: HEK293 membranes, 0.5 nM [3H]CP 55,940; for Ki: rat CB2 (Ki, nM); for pKi: read-out: rat CB2 (Ki)
T2 sequence (Q9QZN9 1-360): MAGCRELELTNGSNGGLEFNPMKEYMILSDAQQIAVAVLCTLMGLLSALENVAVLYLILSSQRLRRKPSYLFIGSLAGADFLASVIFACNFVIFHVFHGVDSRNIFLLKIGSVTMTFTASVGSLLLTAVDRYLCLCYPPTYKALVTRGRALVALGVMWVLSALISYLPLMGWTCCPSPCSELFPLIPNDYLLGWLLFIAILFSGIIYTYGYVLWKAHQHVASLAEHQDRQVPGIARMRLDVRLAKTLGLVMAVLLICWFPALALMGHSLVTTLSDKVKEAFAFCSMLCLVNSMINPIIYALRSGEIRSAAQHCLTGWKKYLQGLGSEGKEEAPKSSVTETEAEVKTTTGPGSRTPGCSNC
Experimental: as §1
HEK293 cells stably expressing rat CB2 receptors were grown until a confluent monolayer was formed. Briefly, the cells were harvested and homogenized in TE buffer (50 mM Tris-HCl, 1 mM MgCl2, and 1 mM EDTA) using a polytron for 2×10 second bursts in the presence of protease inhibitors, followed by centrifugation at 45,000×g for 20 minutes. The final membrane pellet was re-homogenized in storage buffer (50 mM Tris-HCl, 1 mM MgCl2, and 1 mM EDTA and 10% sucrose) and frozen at −78° C. until used. Saturation binding reactions were initiated by the addition of membrane preparation (protein concentration of 20 μg/well for rat CB2) into wells of a deep well plate containing [^3H]CP 55,940 (120 Ci/mmol, a nonselective CB agonist commercially available from Tocris) in assay buffer (50 mM Tris, 2.5 mM EDTA, 5 mM MgCl2, and 0.5 mg/mL fatty acid free BSA, pH 7.4). After 45 min incubation at 30° C., binding reaction was terminated by the addition of […] of cold assay buffer followed by rapid vacuum filtration through a UniFilter-96 GF/C filter plates (pre-soaked in 1 mg/mL BSA for 2 hours). The bound activity was counted in a TopCount using Microscint-20. Saturation experiments were conducted with twelve concentrations of [^3H]CP 55,940 ranging from 0.01 to 8 nM. Competition experiments were conducted with 0.5 nM [^3H]CP 55,940 and five concentrations of displacing ligands selected from the range of 0.01 nM to 10 μM. The addition of 10 μM unlabeled CP 55,940 (Tocris, Ellisville, Mo.) was used to assess nonspecific binding.

Structure (SMILES)	Ki (human CB2 receptors)	Ki (rat CB2)	pKi (human CB2 receptors)	pKi (rat CB2)
Cn1c(C(C)(C)C)c/c(=N\C(=O)c2cc(C(F)(F)F)ccc2OCCCCS(C)(=O)=O)n1C[C@H]1CCCO1 [Example 83, N-{(3E)-5-tert-butyl-1-methyl-2-[(2R)-tetrahydrofuran-2-ylmethyl]-1,2-dihydro-3 H-pyrazol-3-ylidene}-2-[4-(methylsulfonyl)butoxy]-5-(trifluoromethyl)benzamide]	> 1000 nM	305 nM		
CCCCn1/c(=N/C(=O)c2cc(C(F)(F)F)ccc2SCC(C)(C)O)cc(C(C)(C)C)n1C [Example 137]	55 nM	26 nM		
Cn1c(C(C)(C)C)c/c(=N\C(=O)c2cc(C(F)(F)F)ccc2OCC(C)(C)OCc2ccccc2)n1C[C@H]1CCCO1 [Example 55, 2-[2-(benzyloxy)-2-methylpropoxy]-N-{(3E)-5-tert-butyl-1-methyl-2-[(2R)-tetrahydrofuran-2-ylmethyl]-1,2-dihydro-3H-pyrazol-3-ylidene}-5-(trifluoromethyl)benzamide]	> 1000 nM	458 nM		
CC(=O)NCCOc1ccc(C(F)(F)F)cc1C(=O)/N=c1\cc(C(C)(C)C)n(C)n1CC1CCC1 [Example 130, 2-[2-(acetylamino)ethoxy]-N-[(3E)-5-tert-butyl-2-(cyclobutylmethyl)-1-methyl-1,2-dihydro-3H-pyrazol-3-ylidene]-5-(trifluoromethyl)benzamide]	5 nM	2.9 nM		
CC(C)(O)COc1ccc(C(F)(F)F)cc1C(=O)/N=c1\sc(C(C)(C)C)nn1CC1(C)COC1 [Example 97, N-[(2Z)-5-tert-butyl-3-[(3-methyloxetan-3-yl)methyl]-1,3,4-thiadiazol-2(3 H)-ylidene]-2-(2-hydroxy-2-methylpropoxy)-5-(trifluoromethyl)benzamide]	31.6 nM	13 nM		
CC[C@H](O)COc1ccc(C(F)(F)F)cc1C(=O)/N=c1\cc(C(C)(C)C)n(C)n1C[C@H]1CCCO1 [Example 109, N-{(3E)-5-tert-butyl-1-methyl-2-[(2R)-tetrahydrofuran-2-ylmethyl]-1,2-dihydro-3H-pyrazol-3-ylidene}-2-{[(2S)-2-hydroxybutyl]oxy}-5-(trifluoromethyl)benzamide]	1.3 nM	1.2 nM		
Cn1c(C(C)(C)C)c/c(=N\C(=O)c2cc(Br)ccc2OCC(C)(C)O)n1C[C@H]1CCCO1 [Example 128, 5-bromo-N-{(3E)-5-tert-butyl-1-methyl-2-[(2R)-tetrahydrofuran-2-ylmethyl]-1,2-dihydro-3H-pyrazol-3-ylidene}-2-(2-hydroxy-2-methylpropoxy)benzamide]	15 nM	4.9 nM		
Cn1c(C(C)(C)C)c/c(=N\C(=O)c2cc(C(F)(F)F)ccc2OCC(C)(C)CO)n1C[C@H]1CCCO1 [Example 116, N-{(3E)-5-tert-butyl-1-methyl-2-[(2R)-tetrahydrofuran-2-ylmethyl]-1,2-dihydro-3H-pyrazol-3-ylidene}-2-(3-hydroxy-2,2-dimethylpropoxy)-5-(trifluoromethyl)benzamide]			< 6.00	6.70
C[C@H](O)COc1ccc(C(F)(F)F)cc1C(=O)/N=c1\cc(C(C)(C)C)n(C)n1C[C@H]1CCCO1 [Example 98, N-{(3E)-5-tert-butyl-1-methyl-2-[(2R)-tetrahydrofuran-2-ylmethyl]-1,2-dihydro-3 H-pyrazol-3-ylidene}-2-{[(2S)-2-hydroxypropyl]oxy}-5-(trifluoromethyl)benzamide]	4.6 nM	6.6 nM		
Cn1c(C(C)(C)C)c/c(=N\C(=O)c2cc(C(F)(F)F)ccc2OCC2(C)COC2)n1C[C@H]1CCCO1 [Example 19, N-{(3E)-5-tert-butyl-1-methyl-2-[(2R)-tetrahydrofuran-2-ylmethyl]-1,2-dihydro-3H-pyrazol-3-ylidene}-2-[3-methyloxetan-3-methoxyl]-5-(trifluoromethyl)benzamide]	> 1000 nM	323 nM		
CN(C[C@@H]1CCCO1)c1ccc(C(F)(F)F)cc1C(=O)/N=c1\cc(C(C)(C)C)n(C)n1C[C@H]1CCCO1 [Example 26, N-{(3E)-5-tert-butyl-1-methyl-2-[(2R)-tetrahydrofuran-2-ylmethyl-]-1,2-dihydro-3H-pyrazol-3-ylidene}-2-{methyl[(2S)-tetrahydrofuran-2-ylmethyl]amino}-5-(trifluoromethyl)benzamide]	> 1000 nM	343 nM		
CC(C)(C)c1nn(CCCC#N)/c(=N/C(=O)c2cc(C(F)(F)F)ccc2OCCCC#N)s1 [Example 85, N-[(2Z)-5-tert-butyl-3-(3-cyanopropyl)-1,3,4-thiadiazol-2(3H)-ylidene]-2-(3-cyanopropoxy)-5-(trifluoromethyl)benzamide]	20 nM	2.5 nM		
COC(=O)c1ccc(OCC(C)(C)O)c(C(=O)/N=c2\cc(C(C)(C)C)n(C)n2C[C@H]2CCCO2)c1 [Example 132, methyl 3-[({(3E)-tert-butyl-1-methyl-2-[(2R)-tetrahydrofuran-2-ylmethyl]-1,2-dihydro-3H-pyrazol-3-ylidene}amino)carbonyl]-4-(2-hydroxy-2-methylpropoxy)benzoate]			6.90	7.29
Cn1c(C(C)(C)C)c/c(=N\C(=O)c2cc(C(F)(F)F)ccc2OCC2CN(S(C)(=O)=O)C2)n1C[C@H]1CCCO1 [Example 54, N-{(3E)-5-tert-butyl-1-methyl-2-[(2R)-tetrahydrofuran-2-ylmethyl]-1,2-dihydro-3H-pyrazol-3-ylidene}-2-{[1-(methylsulfonyl)azetidin-3-yl]methoxy}-5-(trifluoromethyl)benzamide]		71 nM	6.72	
Cn1c(C(C)(C)C)c/c(=N\C(=O)c2cc(C(F)(F)F)ccc2OC[C@@H]2CCCN2S(C)(=O)=O)n1C[C@H]1CCCO1 [Example 61, N-{(3E)-5-tert-butyl-1-methyl-2-[(2R)-tetrahydrofuran-2-ylmethyl]-1,2-dihydro-3 H-pyrazol-3-ylidene}-2-{[(2S)-1-(methylsulfonyl)pyrrolidin-2-yl]methoxy}-5-(trifluoromethyl)benzamide]	> 1000 nM	433 nM		
CC(C)c1c/c(=N\C(=O)c2cc(C(F)(F)F)ccc2OCC(C)(C)O)n(CC2CCCC2)n1C [Example 114, N-[(3E)-2-(cyclopentylmethyl)-5-isopropyl-1-methyl-1,2-dihydro-3H-pyrazol-3-ylidene]-2-(2-hydroxy-2-methylpropoxy)-5-(trifluoromethyl)benzamide]		35 nM	6.89	
CCCCn1oc(C(C)(C)C)c/c1=N\C(=O)c1cc(C(F)(F)F)ccc1OCC(C)(C)O [Example 100, N-[(3E)-2-butyl-5-tert-butylisoxazol-3(2H)-ylidene]-2-(2-hydroxy-2-methylpropoxy)-5-(trifluoromethyl)benzamide]	1.7 nM	1.3 nM		
